Structures can show the parent of a compound that is named as a salt.

The target in one data set is T1, human 15-LO (Homo sapiens, UniProt P16050).
T1 sequence (P16050 1-662): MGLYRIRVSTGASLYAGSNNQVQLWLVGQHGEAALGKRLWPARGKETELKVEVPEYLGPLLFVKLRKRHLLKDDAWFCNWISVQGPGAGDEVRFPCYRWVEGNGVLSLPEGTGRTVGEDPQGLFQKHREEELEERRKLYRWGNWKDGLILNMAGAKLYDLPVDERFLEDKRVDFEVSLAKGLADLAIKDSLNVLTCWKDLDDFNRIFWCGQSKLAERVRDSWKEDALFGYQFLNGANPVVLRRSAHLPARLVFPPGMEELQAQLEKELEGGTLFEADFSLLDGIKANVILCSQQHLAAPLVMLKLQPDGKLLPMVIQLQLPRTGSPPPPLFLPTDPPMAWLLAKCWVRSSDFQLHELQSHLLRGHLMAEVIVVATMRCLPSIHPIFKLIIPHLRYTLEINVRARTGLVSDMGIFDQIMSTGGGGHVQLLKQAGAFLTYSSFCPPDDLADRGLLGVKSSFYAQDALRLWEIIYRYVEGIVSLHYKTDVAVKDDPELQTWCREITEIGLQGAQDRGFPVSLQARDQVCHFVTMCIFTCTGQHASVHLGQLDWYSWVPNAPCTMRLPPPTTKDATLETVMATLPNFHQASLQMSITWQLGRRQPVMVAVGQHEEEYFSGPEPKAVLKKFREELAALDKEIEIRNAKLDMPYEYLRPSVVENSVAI
Nature of the data set: 15-LO inhibition, human enzyme. The data set is classed as biochemical. The conditions noted are these: linoleic acid as substrate. On the procedure:
The compounds described above are effective inhibitors of 15-LO when evaluated in standard assays routinely utilized to measure 15-LO activity. Specifically, representative compounds were evaluated by the methods described by Auerbach et al., Analytical Biochemistry, 1992;201:375-380. Two in vitro assays were utilized, one utilizing rabbit reticulocyte 15-LO, the other using human 15-LO. Both used linoleic acid as substrate, to enzymatically produce a peroxide oxidation product known as 13(S)-HPODE. N-Benzoyl leucomethylene blue was utilized as a colorimetric reagent for detection and quantification of the peroxide formation. Also, HPLC was utilized to quantify the oxidation following incubation at 4° C. for 10 minutes.
Data Column 1 gives the concentration of compound required to inhibit 50% of the activity of 15-LO (IC50) when measured by the HPLC method of Auerbach et al. using rabbit enzymes, and data Column 2 gives data from human 15-LO enzyme.

As for `COc1ccc(-c2cc3cc(F)c(F)cc3[nH]2)cc1Nc1cccc(OCc2ccccc2)c1` (as salt: HCl) [Example 53, [5-(5,6-Difluoro-1H-indol-2-yl)-2-methoxy-phenyl]-(3-benzyloxy-phenyl)-amine], the melting point is 200 to 201 °C (dec.). For the compound `COc1ccc(-c2cc3cc(F)c(F)cc3[nH]2)cc1NS(=O)(=O)c1cccc(N)c1` [Example 16, 3-Amino-N-[5-(5,6-difluoro-1H-indol-2-yl)-2-methoxy-phenyl]-benzenesulfonamide], the melting point lay in the range of 235 to 238 °C. On human 15-LO, this compound came in with a 50% inhibitory concentration (IC50) of 20 nM. With `COc1ccc(-c2cc3ccccc3[nH]2)cc1NC(=S)Nc1ccc(S(N)(=O)=O)cc1` [Example 17, 4-{3-[5-(1H-Indol-2-yl)-2-methoxy-phenyl]-thioureido}-benzenesulfonamide], the IC50 against human 15-LO came to 187 nM. `CCCCCCCCCCCCS(=O)(=O)Nc1cc(-c2cc3cc(F)c(F)cc3[nH]2)ccc1OC` [Example 20, Dodecane-1-sulfonic acid [5-(5,6-difluoro-1H-indol-2-yl)-methoxy-phenyl]-amide] yielded a melting point of 148 to 149 °C. This compound also registered an IC50 at human 15-LO of 13 nM. In turn, `CCCCCCCCCCCCS(=O)(=O)Nc1cc(-c2nc3cc(Cl)c(Cl)cc3[nH]2)ccc1OC` [Example 21, Dodecane-1-sulfonic acid [5-(5,6-dichloro-1H-benzoimidazol-2-yl)-2-methoxy-phenyl]-amide] showed a melting point of 203 to 204 °C. The compound also had an inhibition at 10 µM at human 15-LO (at 10 micromolar) of 65%. `COc1ccc(-c2cc3cc(F)c(F)cc3[nH]2)cc1Nc1cccc(C(F)(F)F)c1` [Example 22, [5-(5,6-Difluoro-1H-indol-2-yl)-2-methoxy-phenyl]-(3-trifluoro-methylphenyl)-amine] came in with a melting point of 144 to 146 °C. In addition, at human 15-LO, the IC50 is 48 nM. In the case of `CCOP(=O)(Cc1ccc(NC(=S)Nc2cc(-c3cc4ccccc4[nH]3)ccc2OC)cc1)OCC` [Example 23, (4-{3-[5-(1H-Indol-2-yl)-2-methoxy-phenyl]-thioureido}-benzyl)-phosphonic acid diethyl ester], the IC50 against human 15-LO was found to be 331 nM. Regarding `COc1ccc(-c2cc3cc(F)c(F)cc3[nH]2)cc1NC(=O)Nc1cc(Cl)cc(Cl)c1` [Example 25, 1-(3,5-Dichloro-phenyl)-3-[5-(5,6-difluoro-1H-indol-2-yl)-2-methoxy-phenyl]-urea], the melting point fell in the range of 240 to 243 °C. The IC50 against human 15-LO was found to be 2080 nM. The like results for `COc1ccc(-c2cc3ccccc3[nH]2)cc1NC(N)=S` [Example 26, [5-(1H-Indol-2-yl)-2-methoxy-phenyl]-thiourea] were, in that order, 188 to 191 °C and 258 nM. The like results for `COc1ccc(-c2cc3ccccc3[nH]2)cc1NC(=S)N[C@H](C)c1ccccc1` [Example 27, (R)-1-[5-(1H-Indol-2-yl)-2-methoxy-phenyl]-3(1-phenyl-ethyl)-thiourea] were, in that order, 179 to 181 °C and 1770 nM.

Consider `COc1ccc(-c2cc3cc(F)c(F)cc3[nH]2)cc1NS(=O)(=O)c1cccc(C#N)c1` [Example 28, 3Cyano-N-[5-(5,6-difluoro-1H-indol-2-yl)-2-methoxy-phenyl]-benzenesulfonamide], for which the melting point was in the range of 239 to 242 °C. The compound also returned an IC50 against human 15-LO of 802 nM. Regarding `CNc1cc(-c2cc3ccccc3[nH]2)ccc1OC` [Example 29, [5-(1H-Indol-2-yl)-2-methoxy-phenyl]-methyl-amine], it took 470 nM to reach half-maximal inhibition against human 15-LO (IC50).

The compound `COc1ccc(-c2cc3cc(F)c(F)cc3[nH]2)cc1NC(=S)Nc1cc(C(=O)O)cc(C(=O)O)c1` [Example 30, 5-{3-[5-(5,6-Difluoro-1H-indol-2-yl)-2-methoxy-phenyl]-thioureido}-isophthalic acid] returned an IC50 at human 15-LO of 1820 nM. On the same count and under the same terms, with `COc1ccc(-c2cc3cc(F)c(F)cc3[nH]2)cc1NC(=S)N[C@@H](CO)[C@@H](O)c1ccccc1` [Example 40, 1-[5-(5,6-Difluoro-1H-indol-2-yl)-2-methoxy-phenyl]-3-((1S,2S)-2-hydroxy-1-hydroxymethyl-2-phenyl-ethyl)-thiourea] the figure was 620 nM.

The record behind these values is patent US6858739B2, “Indole and benzimidazole 15-lipoxygenase inhibitors” (Warner-Lambert Company, priority 2000, dated 2005).
